Reference: patent publication US10206896B2, “Method of treating delayed healing of a wound associated with diabetes” (KUWAIT UNIVERSITY, priority 2014, dated 2019)

Tests used:
[1] = system: diabetic fibroblasts (DFs); assay: BrdU incorporation into DNA (cell proliferation) in diabetic fibroblasts; assay type: cell-based, GotoKakizaki (GK) rat; details: treated DFs compared with DFs
Method: (§1) Cell culture and HP treatment.
Assessment of key fibroblast functions essential for wound healing. To assess cell proliferation, fibroblasts were seeded into a 96-well plate at a density of 1×10^4 per well and were allowed to adhere overnight in DMEM medium supplemented with 10% FCS. After arrest by incubation in serum-free medium for 24 hours, the cells were exposed to growth factors, and the incorporation of bromodeoxyuridine (BrdU) into DNA was determined using the manufacturer's protocol (Roche Diagnostics). Similarly, for the in vitro wound (migration) experiments, cultured fibroblasts were grown in six-well plates until they reached confluence. The medium was removed, the cells were washed with PBS 3× before culturing was continued in serum-free DMEM containing 0.5% BSA for an additional 24 hours. Thereafter, the monolayer was artificially wounded by using a pipette tip to scratch across the plate; the cells were washed with PBS to remove the detached cells and then cultured in serum-free medium in the presence of mitomyocin C (10 μg/ml) to prevent cell proliferation. The rate of wound healing was quantified as described in the literature

[2] = system: circular wound of a diabetic rat; assay: Full-thickness excisional circular wound, rate of wound closure; assay type: in vivo, GotoKakizaki (GK) rat; details: composition of 30 μM 18α-GA and pluronic acid applied to the wound
Method: Wound model, drug treatment and macroscopic evaluation. All of the animal procedures were performed in accordance with the NIH Guidance for the Care and Use of Laboratory Animals. Female GotoKakizaki rats (GK) were used in the current study. Detailed information regarding this animal model for non-obese type 2 diabetes has been previously described. Weight and age-matched female Wistar rats (Kuwait University breeding colony) served as the corresponding controls. All of the animals were maintained under standard conditions with a 12 hour on/off light cycle, commercial diet, and water ad libitum. […]
The targeted depletion of caveolin-1 was achieved using the antisense vivo-morpholino oligomers (MOs) that were synthesized and designed by Gene Tools, LLC (Eugene, Oreg.). […] The specificity of the cav-1 morphant phenotype was determined using rat caveolin-1 cRNA that lacked the antisense MO binding site. […] The wound area was analyzed using Adobe Photoshop (version 7.0; Adobe Systems), and the percentage of wound closure was derived by the following formula: (1−[current wound size/initial wound size])×100. […]
Full-thickness excisional wounds were induced in the control and GK (a non-obese genetic model of type 2 diabetes), and key parameters related to cellular senescence, caveolin-1 signaling and oxidative stress were measured 10 days post-injury. […]

[3] = system: chronic oxidative stress fibroblasts (OS-CFs); assay: Premature senescence in chronic oxidative stress fibroblasts; assay type: cell-based, Wistar rat
Method: as §1
Oxidatively-stressed CFs (OS-CFs). A heightened state of oxidative stress and premature senescence in CFs were induced using hydrogen peroxide (HP) as a stressor. The HP treatment was conducted by seeding approximately 1×10^6 cells in a T75 tissue culture flask. Twenty-four hours later, the cells were exposed to a sublethal dose of HP (150 μM) for 2 hours, washed 2× with PBS and after 4 days of culturing in HP free medium; they were split in a 1:2 ratio, and then the aforementioned protocol was repeated again for cells receiving the second and third HP treatment. A third passage HP-treated CFs denoted in the current study as (OS-CFs) together with the corresponding CFs and DFs were used in most of the assays outlined below.

[4] = system: diabetic fibroblasts (DFs)
[5] = system: control fibroblasts (CFs); assay: BrdU incorporation into DNA (cell proliferation) in control fibroblasts; assay type: cell-based, Wistar rat; details: 24-hr serum starved CFs, vs starved cells; dose providing the maximum response (IGF 50 ng, PDGF 1 nM, EGF 100 ng)
Method: Cell culture and HP treatment. […] Assessment of key fibroblast functions essential for wound healing. To assess cell proliferation, fibroblasts were seeded into a 96-well plate at a density of 1×10^4 per well and were allowed to adhere overnight in DMEM medium supplemented with 10% FCS. After arrest by incubation in serum-free medium for 24 hours, the cells were exposed to growth factors, and the incorporation of bromodeoxyuridine (BrdU) into DNA was determined using the manufacturer's protocol (Roche Diagnostics). Similarly, for the in vitro wound (migration) experiments, cultured fibroblasts were grown in six-well plates until they reached confluence. The medium was removed, the cells were washed with PBS 3× before culturing was continued in serum-free DMEM containing 0.5% BSA for an additional 24 hours. […] The rate of wound healing was quantified as described in the literature […] Caveolin-1 protein expression and PDGF-induced phosphorylation of Akt (20 min) and ERK (10 min) in 24-hr serum starved fibroblasts were determined using a Western-blotting-based technique. A proliferation index encompassing BrdU incorporation into DNA and cell cycle progression was evaluated in response to various growth factors (e.g., IGF, 50 ng; PDGF, 1 nM; EGF, 100 ng) in 24-hr serum starved fibroblast. […]

[6] = system: control fibroblasts (CFs); assay: In vitro scratch wound (cell migration) in control fibroblasts; assay type: cell-based, Wistar rat; details: 24 hrs post-injury
Method: Cell culture and HP treatment. […] Assessment of key fibroblast functions essential for wound healing. To assess cell proliferation, fibroblasts were seeded into a 96-well plate at a density of 1×10^4 per well and were allowed to adhere overnight in DMEM medium supplemented with 10% FCS. After arrest by incubation in serum-free medium for 24 hours, the cells were exposed to growth factors, and the incorporation of bromodeoxyuridine (BrdU) into DNA was determined using the manufacturer's protocol (Roche Diagnostics). Similarly, for the in vitro wound (migration) experiments, cultured fibroblasts were grown in six-well plates until they reached confluence. The medium was removed, the cells were washed with PBS 3× before culturing was continued in serum-free DMEM containing 0.5% BSA for an additional 24 hours. Thereafter, the monolayer was artificially wounded by using a pipette tip to scratch across the plate; the cells were washed with PBS to remove the detached cells and then cultured in serum-free medium in the presence of mitomyocin C (10 μg/ml) to prevent cell proliferation. The rate of wound healing was quantified as described in the literature […] Caveolin-1 protein expression and PDGF-induced phosphorylation of Akt (20 min) and ERK (10 min) in 24-hr serum starved fibroblasts were determined using a Western-blotting-based technique. A proliferation index encompassing BrdU incorporation into DNA and cell cycle progression was evaluated in response to various growth factors (e.g., IGF, 50 ng; PDGF, 1 nM; EGF, 100 ng) in 24-hr serum starved fibroblast. An in vitro wound-healing model conducted by scratching starved confluent cultured fibroblasts with a pipette tip was used to monitor the impact of PDGF on cell migration. […] In serum-induced proliferating cells in CFs, the optical density at 450 nm (OD450) was more than 10-fold higher than that observed for starved cells.

premature senescence ([4]; DFs) | level/activity of SA-β-gal ([4]; treated DFs compared with DFs) | Molecule | rate of proliferation (BrdU incorporation into DNA) [1] | impaired wound healing (rate of wound closure) [2] | premature senescence [3] | increase of proliferation rate (BrdU incorporation) [5] | number of cells that migrated into the cell-free wound zone [6] | relative potency on cell migration among growth factors [6]
can be reversed | significantly lower level | CC1(C)[C@@H](O)CC[C@]2(C)[C@H]3C(=O)C=C4[C@H]5C[C@@](C)(C(=O)O)CC[C@]5(C)CC[C@@]4(C)[C@]3(C)CC[C@@H]12 [18α-GA, 18α-Glycyrrhetinic acid] | increased rate of proliferation | ameliorate impaired wound healing | can be reversed |  |  | 
 |  | IGF: mitotic growth factor |  |  |  | ~6.7 fold | markedly increased | 
 |  | PDGF |  |  |  | approximately 10 fold | markedly increased | most potent among them
